From PubChem BioAssay (NCI)
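Where inhibition never reached the appropriate level, the endpoint shown equals the highest concentration tested. Otherwise, values were interpolated linearly from a five-concentration, 48-hour dose response in 96-well plates. Abbreviation: GI50, concentration required for 50% inhibition of growth. At the TGI there is no net growth.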

Assays:
Experiment in all cases: NCI tumour cell line growth inhibition, 48 h
[1] = system: HCT-116 colon
[2] = system: HCT-15 colon
[3] = system: MCF7 breast
[4] = system: NCI-H226 lung
[5] = system: OVCAR-3 ovarian
[6] = system: OVCAR-8 ovarian
[7] = system: PC-3 prostate
[8] = system: SK-MEL-2 melanoma
[9] = system: U251 CNS
[10] = system: SK-OV-3 ovarian

| SMILES | GI50 [1] | TGI [1] | GI50 [2] | TGI [2] | GI50 [3] | TGI [3] | GI50 [4] | TGI [4] | GI50 [5] | TGI [5] | GI50 [6] | TGI [6] | GI50 [7] | TGI [7] | GI50 [8] | TGI [8] | GI50 [9] | TGI [9] | TGI [10] | GI50 [10] |
| --- | --- | --- | --- | --- | --- | --- | --- | --- | --- | --- | --- | --- | --- | --- | --- | --- | --- | --- | --- | --- |
| Cc1ccc(C(=O)N=Nc2c(O)[nH]c3ccc(Cl)cc23)cc1 | 10.4 µM | > 50 µM | 18 µM | > 50 µM | 13.5 µM | > 50 µM | 7.4 µM | 24.6 µM | 21.3 µM | > 50 µM | 10.8 µM | 32.4 µM | 25.9 µM | > 50 µM | > 50 µM | > 50 µM | 21.5 µM | > 50 µM |  |  |
| Clc1cccc2c1OCC1C(c3ccccc3)=NN(c3ccccc3)C21 (configuration not stated) |  | > 100 µM |  |  |  |  |  |  |  | > 100 µM |  | > 100 µM |  |  |  | > 100 µM |  | > 100 µM | > 100 µM |  |
| O=C(Sc1sc(=S)sc1SC(=O)c1ccccc1)c1ccccc1 |  | > 100 µM |  | > 100 µM |  |  |  |  |  | > 100 µM |  | > 100 µM |  |  |  | > 100 µM |  | 80.7 µM | 41.4 µM |  |
| C/C=C1\CCC2c3[nH]c4ccccc4c3CCN2C1 (configuration not stated) |  | > 100 µM |  |  |  |  |  | > 100 µM |  | > 100 µM |  | > 100 µM |  |  |  | > 100 µM |  | > 100 µM | > 100 µM |  |
| COc1cc(NC(C)CCCN)c2ncccc2c1Sc1ccc(Cl)cc1 (configuration not stated) | 1.7 µM | 3.27 µM | 1.89 µM | 3.67 µM | 1.76 µM | 3.19 µM |  |  | 1.77 µM | 3.28 µM | 1.64 µM | 3 µM | 1.65 µM | 3.09 µM | 1.85 µM | 3.4 µM | 1.51 µM | 2.83 µM | 3.08 µM | 1.65 µM |
| Cc1cc2c(=O)cc(-c3ccc(F)cc3)oc2c(C(=O)O)c1C |  | > 100 µM |  | > 100 µM |  |  |  | > 100 µM |  | > 100 µM |  | > 100 µM |  |  |  | > 100 µM |  | > 100 µM | > 100 µM |  |
| CC/C(CC(=O)CCC(=O)Nc1ccc(C)c(C)c1)=N\NC(=O)C(N)=O |  | > 100 µM |  | > 100 µM |  |  |  | > 100 µM |  | > 100 µM |  | > 100 µM |  |  |  |  |  | > 100 µM | > 100 µM |  |
| CC12CC(Sc3ccccc3N1)c1ccccc1O2 (configuration not stated) |  | 29.2 µM |  | 29.2 µM |  |  |  |  |  | 30.3 µM |  | 33.3 µM |  |  |  | 25.4 µM |  | 26 µM | 58.4 µM |  |
| O=C(Nc1cccc(-n2cc(-c3ccncc3)c(-c3ccc(O)c(Cl)c3)n2)c1)c1ccc(Cl)c(Cl)c1 | 5.95 µM | > 100 µM | 3.2 µM | > 100 µM | 4.08 µM | > 100 µM | 8.06 µM | > 100 µM |  |  | 5.06 µM | > 100 µM | 5.16 µM | > 100 µM | 11.6 µM | 38.6 µM | 4.03 µM | 34.2 µM | > 100 µM | 42.3 µM |
| CCN(CC)CCC(=O)/C=C/c1ccc(C)cc1 |  | 26.2 µM |  | 36.3 µM |  |  |  | 31.9 µM |  | 31.1 µM |  | 32.4 µM |  |  |  |  |  | 22.3 µM | 35.1 µM |  |
| COc1ccc(C#CC2=C(c3cc(OC)c(OC)c(OC)c3)C(=O)OC2)cc1 | 1.8 µM | > 50 µM | 1.99 µM | > 50 µM | 0.948 µM | > 50 µM | 7.88 µM | 27.1 µM | 1.59 µM | 10.3 µM | 3.23 µM | 22.5 µM | 2.95 µM | > 50 µM | 42.5 µM | > 50 µM | 1.64 µM | 6.74 µM |  |  |
| COC(=O)[C@@H](OC)[C@@H]1Cc2cc3cc(OC4CC(OC5CC(O)C(O)C(C)O5)C(O)C(C)O4)c(C)c(O)c3c(O)c2C(=O)[C@H]1OC1CC(OC2CC(OC3CC(C)(O)C(O)C(C)O3)C(O)C(C)O2)C(O)C(C)O1 (some centres not stated) | 0.0246 µM | > 16.5 µM | 0.0575 µM | > 16.5 µM | 0.0275 µM | > 16.5 µM | 0.0384 µM | 0.125 µM |  |  | 0.0393 µM | > 16.5 µM | 0.0429 µM | 0.188 µM | 0.0355 µM | 0.0777 µM | 0.0385 µM | > 16.5 µM | > 16.5 µM | 0.0811 µM |
| O=c1cc(O)c2c(O)cc(O)cc2o1 |  | > 100 µM |  | > 100 µM |  | > 100 µM |  | > 100 µM |  | > 100 µM |  | > 100 µM |  | > 100 µM |  | > 100 µM |  | > 100 µM |  |  |
| O=C1CCC2(c3ccccc3)Nc3ccc(Cl)cc3N12 (configuration not stated) |  |  |  | > 100 µM |  |  |  | > 100 µM |  | > 100 µM |  | > 100 µM |  |  |  | > 100 µM |  | > 100 µM | > 100 µM |  |
| O=C(NC(=O)c1cc2cc(Br)cc(Br)c2oc1=O)Oc1ccccc1 |  | > 100 µM |  | > 100 µM |  |  |  | > 100 µM |  | > 100 µM |  | > 100 µM |  |  |  |  |  | > 100 µM | > 100 µM |  |
| CCN1C(=O)N(CC)C2C1NN=c1s/c(=C\c3cccc([N+](=O)[O-])c3)c(=O)n12 (configuration not stated) | 0.0422 µM | > 100 µM | 0.0486 µM | > 100 µM | 0.0366 µM | > 100 µM | 8.25 µM | > 100 µM | 0.0575 µM | 0.399 µM | 0.172 µM | > 100 µM | 0.0853 µM | > 100 µM | 0.453 µM | > 100 µM | 0.0542 µM | > 100 µM |  |  |
| COc1ccc(/C(=N/O)c2cc(OC)c(OC)c(OC)c2)c(OC)c1N | 3.41 µM | > 100 µM | 3.87 µM | > 100 µM | 3.26 µM | > 100 µM | > 100 µM | > 100 µM |  |  | 9.87 µM | > 100 µM | 3.97 µM | > 100 µM | > 100 µM | > 100 µM | 5.65 µM | > 100 µM | > 100 µM | 8.51 µM |
| CCCCN1CCN(c2ccc3nc(-c4ccc5nc(-c6ccc(OCC)c(OCC)c6)[nH]c5c4)[nH]c3c2)CC1 | 0.431 µM | 1.66 µM | 1.56 µM | 3.32 µM |  |  | 1.29 µM | 3.95 µM | 0.358 µM | 0.85 µM |  |  | 1.08 µM | 2.44 µM |  |  | 1.28 µM | 2.69 µM | 3.27 µM | 1.33 µM |
